A short description of series [1]: Dynamic Vapor Sorption (DVS) analysis. It is filed as physicochemical. As to conditions: between 0-90% relative humidity, 25° C. The protocol:
Dynamic Vapor Sorption (DVS). DVS experiments were conducted on a Surface Measurement Systems DVS-HT at 25° C. The instrument was operated in step mode and the relative humidity was increased in 10% RH increments from 40% RH to 90% RH, then decreased from 90% RH to 0% RH, then increased from 0% RH to 90% RH, then decreased from 90% RH to 0% RH. An extra step at 75% RH was included in each cycle. The mass equilibrium criterion was set at 0.005% change in mass over time (dm/dt) prior to each humidity level. A minimum step time of 10 minutes and a maximum step time of 240 minutes were specified.

Series [2] is described as follows: Physical stability of the crystal form on exposure to ambient conditions or elevated humidity. It is filed as physicochemical.

In the case of `[2H]C([2H])([2H])C(c1cc2nnc(-c3cc(F)ccc3F)n2nc1OCc1ncnn1C)(C([2H])([2H])[2H])C([2H])([2H])[2H]` [Form 2, 7-(tert-Butyl-d9)-3-(2,5-difluorophenyl)-6-((1-methyl-1H-1,2,4-triazol-5-yl)methoxy)-[1,2,4]triazolo[4,3-b]pyridazine], the “weight gain by DVS” value in series [1] was “up to 2.5 % wt”. In series [2] (75% or 95% RH, 5 days), the “physical stability at elevated humidity (75% or 95% RH)” value is recorded as “physically stable”. For the same compound, the “physical stability at 75-97% relative humidity” value in series [2] (75-97% relative humidity, five days) was “physically stable”. Also, in series [2] (ambient conditions, at least two weeks), the “physical stability at ambient conditions” value is given as “physically stable”.

The values above are taken from patent publication US20150119398A1, “FORM 2 POLYMORPH OF 7-(TERT-BUTYL-D9)-3-(2,5-DIFLUOROPHENYL)-6-((1-METHYL-1H-1,2,4-TRIAZOL-5-YL)METHOXY)-[1,2,4]TRIAZOLO[4,3-B]PYRIDAZINE” (Concert Pharmaceuticals Inc., priority 2012, published 2015).
